# Reference: patent US4376770A, “Cephalosporin analogs for oral use” (Shionogi & Co., Ltd., priority 1980, dated 1983)
# Where two headings read alike, the source gives them in different places.
# Key:
# [1] = tested on: Escherichia coli EC-14; assay: Protection test in mice challenged intraperitoneally with Escherichia coli EC-14; assay type: in vivo; settings: for ED50: Escherichia coli, 168 h
# Procedure: To each group consisting of 5 to 10 mice is challenged 2 to 3×10^5 Escherichia coli EC-14 in 5% mucin intraperitoneally. After 1 hour and 5 hours, a suspension of the ester (1) in the foregoing experiment in 5% acacia solution is administered enterally using a tube into stomach. From the survival rate after 7 days, ED50 of the drug is calculated, and the value in mg/kg is interpreted as the corresponding carboxylic acid.
# For using as control, it is necessary to use the effect of the corresponding carboxylic acid. […] Then instead, the ED50 value of the corresponding carboxylic acid (2) on subcutaneous injection is assayed and this is used to evaluate the enteral absorption of the ester (1).
# The control value of ED50 for the carboxylic acid (2) is estimated as follows: To each group consisting of 5 to 10 mice challenged by Escherichia coli EC-14 intraperitoneally as in the case of oral experiment above is injected a solution of the carboxylic acid (2) in 0.7% aqueous sodium hydrogen carbonate subcutaneously after 1 and 5 hours after the challenge. The ED50 value is calculated from the survival rate from 7 days and expressed in mg/kg value.
# [2] = prior-art compound, statement in words; cited from earlier work
# [3] = prior-art compound, statement in words; cited from earlier work; remark: listed apart in the source
# [4] = p.o. 1 and 5 hours after challenge, survival after 7 days, value interpreted as the corresponding carboxylic acid, 10080 min
# [5] = EC14, po, p.o. 1 and 5 hours after challenge, survival after 7 days, value interpreted as the corresponding carboxylic acid, read-out: ED50 of Ester (1) p.o.
# [6] = EC14, sc, subcutaneous in 0.7% aqueous sodium hydrogen carbonate 1 and 5 hours after challenge, survival 7 days, control for ester, read-out: ED50 of Acid (2) subc.
# [7] = subcutaneous in 0.7% aqueous sodium hydrogen carbonate 1 and 5 hours after challenge, survival 7 days, control for ester, 10080 min
# [8] = subcutaneous in 0.7% aqueous sodium hydrogen carbonate 1 and 5 hours after challenge, survival 7 days, control for ester
compound,measurement,setting,value
7β-(2-cyanopropionamido)-7α-methoxy-3-(1-methyl-5-tetrazolyl)thiomethyl-1-dethia-1-oxa-3-cephem-4-carboxylic acid pivaloyloxymethyl ester [No. 1],ED50 of Ester (1) p.o.,"[1]; p.o. 1 and 5 hours after challenge, survival after 7 days, value interpreted as the corresponding carboxylic acid",1.39 mg/kg
"CCOC(=O)OC(C)OC(=O)C1=C(CSc2nnnn2C)CO[C@H]2N1C(=O)[C@]2(NC(=O)C(C#N)CC)OC (single isomer, unassigned) [No. 6, 7β-(2-cyano-n-butyryl)amino-7α-methoxy-3-(1-methyl-5-tetrazolyl)thiomethyl-1-dethia-1-oxa-3-cephem-4-carboxylic acid 1-(ethoxycarbonyloxy)ethyl ester]",ED50 of Ester (1) p.o.,[1]; [4],2.35 mg/kg
"CCOC(=O)OC(C)OC(=O)C1=C(CSc2nnnn2C)CO[C@H]2N1C(=O)[C@]2(NC(=O)C(C#N)CC)OC (single isomer, unassigned) [compound 5]",ED50,[1]; [5],2.22 mg/kg
"CCCC(C#N)C(=O)N[C@]1(OC)C(=O)N2C(C(=O)OC(C)OC(=O)OCC)=C(CSc3nnnn3C)CO[C@@H]21 (single isomer, unassigned) [compound 7]",ED50,[1]; [5],4.7 mg/kg
"CCCC(C#N)C(=O)N[C@]1(OC)C(=O)N2C(C(=O)OC(C)OC(=O)OCC)=C(CSc3nnnn3C)CO[C@@H]21 (single isomer, unassigned) [compound 8]",ED50 of Ester (1) p.o.,[1]; [4],2.82 mg/kg
CO[C@@]1(NC(=O)C(C)C#N)C(=O)N2C(C(=O)O)=C(CSc3nnnn3C)CO[C@@H]21 (some centres unmarked) [1 (Acid (2))],ED50,[1]; [6],1.68 mg/kg
CCC(C#N)C(=O)N[C@]1(OC)C(=O)N2C(C(=O)O)=C(CSc3nnnn3C)CO[C@@H]21 (some centres unmarked) [2 (Acid (2))],ED50,[1]; [6],0.47 mg/kg
CCCC(C#N)C(=O)N[C@]1(OC)C(=O)N2C(C(=O)O)=C(CSc3nnnn3C)CO[C@@H]21 (some centres unmarked) [3 (Acid (2))],ED50,[1]; [6],0.6 mg/kg
CCCCC(C#N)C(=O)N[C@]1(OC)C(=O)N2C(C(=O)O)=C(CSc3nnnn3C)CO[C@@H]21 (some centres unmarked) [4 (Acid (2))],ED50,[1]; [6],3.18 mg/kg
CCC(C#N)C(=O)N[C@]1(OC)C(=O)N2C(C(=O)O)=C(CSc3nnnn3C)CO[C@@H]21 (some centres unmarked) [5 (Acid (2))],ED50 of Acid (2) subc.,[1]; [7],0.45 mg/kg
CCC(C#N)C(=O)N[C@]1(OC)C(=O)N2C(C(=O)O)=C(CSc3nnnn3C)CO[C@@H]21 (some centres unmarked) [6 (Acid (2))],ED50 of Acid (2) subc.,[1]; [7],0.45 mg/kg
CCCC(C#N)C(=O)N[C@]1(OC)C(=O)N2C(C(=O)O)=C(CSc3nnnn3C)CO[C@@H]21 (some centres unmarked) [7 (Acid (2))],ED50 of Acid (2) subc.,[1]; [8],0.60 mg/kg
CC(=O)OCC1=C(C(=O)O)N2C(=O)[C@@H](NC(=O)CC#N)[C@H]2OC1 [7β-Cyanoacetamido-1-dethia-1-oxacephalosporanic acid],antibacterial activity,[2],weak antibacterial
CC(=O)OCC1=C(C(=O)OCOC(=O)C(C)(C)C)N2C(=O)[C@@H](NC(=O)CC#N)[C@H]2SC1 [7β-Cyanoacetamidocephalosporanic acid pivaloyloxymethyl ester],oral absorption,[3],does not show oral absorption sufficient as clinical drugs
CCCC(C#N)C(=O)N[C@]1(OC)C(=O)N2C(C(=O)O)=C(CSc3nnnn3C)CO[C@@H]21 (some centres unmarked) [8 (Acid (2))],ED50 of Acid (2) subc.,[1]; [8],0.60 mg/kg
CCC(C#N)C(=O)N[C@]1(OC)C(=O)N2C(C(=O)O)=C(CSc3nncs3)CO[C@@H]21 (some centres unmarked) [9 (Acid (2))],ED50,[1]; [6],0.77 mg/kg
CCC(C#N)C(=O)N[C@]1(OC)C(=O)N2C(C(=O)O)=C(CSc3nncs3)CO[C@@H]21 (some centres unmarked) [10 (Acid (2))],ED50 of Acid (2) subc.,[1]; [8],0.77 mg/kg
CCC(C#N)C(=O)N[C@]1(OC)C(=O)N2C(C(=O)O)=C(CSc3nnc(C)s3)CO[C@@H]21 (some centres unmarked) [11 (Acid (2))],ED50,[1]; [6],0.87 mg/kg
CCC(C#N)C(=O)N[C@]1(OC)C(=O)N2C(C(=O)OCOC(=O)C(C)(C)C)=C(CSc3nncs3)CO[C@@H]21 (some centres unmarked) [No. 9],ED50,[1]; [5],6.5 mg/kg
CCCC(C#N)C(=O)N[C@]1(OC)C(=O)N2C(C(=O)OCOC(=O)C(C)(C)C)=C(CSc3nnnn3C)CO[C@@H]21 (some centres unmarked) [compound 3],ED50,[1]; [5],5.32 mg/kg
CCCCC(C#N)C(=O)N[C@]1(OC)C(=O)N2C(C(=O)OCOC(=O)C(C)(C)C)=C(CSc3nnnn3C)CO[C@@H]21 (some centres unmarked) [compound 4],ED50,[1]; [5],29.8 mg/kg
CCOC(=O)OC(C)OC(=O)C1=C(CSc2nncs2)CO[C@H]2N1C(=O)[C@]2(NC(=O)C(C#N)CC)OC (some centres unmarked) [compound 10],ED50,[1]; [5],3.23 mg/kg
CCC(C#N)C(=O)N[C@]1(OC)C(=O)N2C(C(=O)OCOC(=O)C(C)(C)C)=C(CSc3nnc(C)s3)CO[C@@H]21 (some centres unmarked) [compound 11],ED50,[1]; [5],3.7 mg/kg
